Results on 1 molecule are retold here after PubChem BioAssay AID588327 (The Scripps Research Institute Molecular Screening Center, 2011).

Activity calls are given as the source filed them. The rule behind the calls is not given here. A value given as a limit tells only on which side of the number the result lay.

This experiment deals with Sphingosine 1-phosphate receptor 3 (Homo sapiens) (UniProt Q99500). Briefly: binders competing with S1P at S1P3 – cell-based, [33P]S1P, radiometric, dose response, mechanism study for S1P3 agonist project, late-stage follow-up (AID 588327). The note with it: S1P3 membranes, [33P]S1P competition binding, CPM.
Sequence of Sphingosine 1-phosphate receptor 3 (Homo sapiens) (Q99500 whole entry, looked up): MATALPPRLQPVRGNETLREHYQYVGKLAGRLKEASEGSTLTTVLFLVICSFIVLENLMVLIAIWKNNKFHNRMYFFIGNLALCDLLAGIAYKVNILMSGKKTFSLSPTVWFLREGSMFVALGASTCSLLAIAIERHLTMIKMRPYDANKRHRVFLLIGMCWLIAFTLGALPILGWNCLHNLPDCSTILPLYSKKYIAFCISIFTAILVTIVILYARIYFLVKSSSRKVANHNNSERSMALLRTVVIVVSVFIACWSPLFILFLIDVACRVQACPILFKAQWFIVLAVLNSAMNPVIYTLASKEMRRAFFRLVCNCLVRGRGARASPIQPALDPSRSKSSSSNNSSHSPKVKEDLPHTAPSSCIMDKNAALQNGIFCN

By IC50 is commonly meant the midpoint of a concentration-inhibition curve. In the case of `O=C(c1cc(C2CC2)on1)N(C1CCCCC1)C1CCCCC1`, the IC50 is > 10 µM (inactive).
